Measured values published in PMC12472303 (2025).

Key:
[1] = tested on: Tel22 (DNA, G4) AGGGTTAGGGTTAGGGTTAGGG; experiment: fluorimetric titration, SPECFIT; settings: Na+ (sodium cacodylate, I = 0.1 M), pH 7.0, <0.1% DMSO
[2] = tested on: poly dAdT-poly dAdT (DNA, polymer) AT; experiment: UV thermal melting at 260 nm; settings: Na+ (sodium cacodylate, I = 0.05 M), pH 7.0, polynucleotide 20 µM nucleotide, r [compound]/[polynucleotide] = 0.3, error ±0.5 °C, per base
[3] = tested on: poly rA-poly rU (RNA, polymer) A/U; experiment: UV thermal melting at 260 nm; settings: Na+ (sodium cacodylate, I = 0.05 M), pH 7.0, polynucleotide 20 µM nucleotide, r [compound]/[polynucleotide] = 0.3, error ±0.5 °C, per base
[4] = tested on: Tel22 (DNA, G4) AGGGTTAGGGTTAGGGTTAGGG; experiment: UV thermal melting at 260 nm; settings: Na+ (sodium cacodylate, I = 0.1 M), pH 7.0, Tel22 1–2 µM, r [compound]/[Tel22] = 4
[5] = tested on: poly dAdT-poly dAdT (DNA, polymer) AT; experiment: fluorimetric titration, Scatchard; settings: Na+ (sodium cacodylate, I = 0.05 M), pH 7.0, per phosphate (nucleotide), n fixed at 0.2, <0.1% DMSO, per base
[6] = tested on: poly dGdC-poly dGdC (DNA, polymer) GC; experiment: fluorimetric titration, Scatchard; settings: Na+ (sodium cacodylate, I = 0.05 M), pH 7.0, per phosphate (nucleotide), n fixed at 0.2, <0.1% DMSO, per base
[7] = Na-cacodylate buffer, concentration as oligonucleotide

log K1 ([1]; Na-cacodylate, second step LG + G = LG2 log K2 5.07 ± 0.26)	ΔTm [2]	ΔTm [3]	log K1 [1, 7]	binding [4]	log Ks [5]	log Ks [6]	SMILES
–	0 °C	+0.9 °C	5.26 ± 0.13 log K	–	–	–	N=C(N)Nc1ccc2c3c(cccc13)-c1ccccc1-2
–	+0.9 °C	+1.3 °C	5.61 ± 0.02 log K	–	6.27 log Ks	5.34 log Ks	NC(N)=Nc1cc2ccccc2c2ccccc12

Continued, molecule first:

SMILES	log K1 ([1]; Na-cacodylate, second step LG + G = LG2 log K2 5.07 ± 0.26)	ΔTm [2]	ΔTm [3]	log K1 [1, 7]	binding [4]	log Ks [5]	log Ks [6]
N=C(N)Nc1ccc(-c2c3nc(c(-c4ccccc4)c4ccc([nH]4)c(-c4ccccc4)c4nc(c(-c5ccccc5)c5ccc2[nH]5)C=C4)C=C3)cc1	7.23 ± 0.49 log K	–	–	–	–	–	–
N=C(N)Nc1ccc2c(c1)Cc1ccccc1-2	–	0 °C	−1.0 °C	5.78 ± 0.08 log K	–	–	–
N=C(N)Nc1ccc2ccccc2c1	–	0 °C	0 °C	5.36 ± 0.07 log K	weak	4.17 log Ks	–
